According to ChEMBL document CHEMBL1201862, “PubChem BioAssay data set” (2004):
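Tested at 5 concentrations; 48 h exposure; 96-well plates; endpoints linearly interpolated, else capped at highest concentration. At the GI50, growth is halved.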 The source made the active and inactive calls. Cut-off read from the data, not from the text of the source: active = GI50 up to about 1.1 µM and inactive = higher.

Assays:
Assay in all cases: growth of human tumour cells (NCI), 48 h
[1] = system: UACC-257
[2] = system: BT-549
[3] = system: 786-0
[4] = system: U-251
[5] = system: HOP-92
[6] = system: M14
[7] = system: SF-539
[8] = system: PC-3
[9] = system: A498
[10] = system: HCC 2998
[11] = system: ACHN
[12] = system: K562
[13] = system: COLO 205
[14] = system: UACC-62
[15] = system: CCRF-CEM
[16] = system: NCI-H460
[17] = system: NCI/ADR-RES
[18] = system: HOP-62
[19] = system: HT-29

## C=C(C)[C@@H]1CCC2=C[C@H](C/C(C)=C\C3=CC(C)=C(O3)[C@H]1O)OC2=O
[1]
  GI50: > 100 µM (inactive)
[2]
  GI50: > 100 µM (inactive)
[3]
  GI50: 35.2 µM (inactive)
[4]
  GI50: 49.8 µM (inactive)
[5]
  GI50: 56.4 µM (inactive)
[6]
  GI50: > 100 µM (inactive)
[7]
  GI50: 48.5 µM (inactive)
[8]
  GI50: 73.8 µM (inactive)
[9]
  GI50: > 100 µM (inactive)
[10]
  GI50: > 100 µM (inactive)
[11]
  GI50: 57.5 µM (inactive)
[12]
  GI50: > 100 µM (inactive)
[13]
  GI50: > 100 µM (inactive)
[14]
  GI50: 93.5 µM (inactive)
[15]
  GI50: > 100 µM (inactive)
[16]
  GI50: > 100 µM (inactive)
[17]
  GI50: > 100 µM (inactive)

## COC(=O)CNC(=O)CCC(C)[C@H]1CCC2C3C(C[C@H](OC(C)=O)[C@@]21C)[C@@]1(C)CCC2(C[C@H]1C[C@H]3OC(C)=O)OOC1(CC[C@]3(C)C4C[C@H](OC(C)=O)[C@@]5(C)C(CC[C@@H]5C(C)CCC(=O)NCC(=O)OC)C4[C@H](OC(C)=O)C[C@@H]3C1)OO2 (stereo partly specified)
[1]
  GI50: 1.14 µM (inactive)
[2]
  GI50: > 50 µM (inactive)
[3]
  GI50: 0.76 µM (active)
[4]
  GI50: 3.78 µM (inactive)
[5]
  GI50: 0.942 µM (active)
[6]
  GI50: 1.37 µM (inactive)
[7]
  GI50: 0.959 µM (active)
[8]
  GI50: 1.64 µM (inactive)
[9]
  GI50: 12 µM (inactive)
[10]
  GI50: 0.944 µM (active)
[11]
  GI50: 0.838 µM (active)
[12]
  GI50: 1.38 µM (inactive)
[13]
  GI50: 0.875 µM (active)
[18]
  GI50: 0.746 µM (active)
[19]
  GI50: 1.01 µM (active)
[15]
  GI50: 0.244 µM (active)
[16]
  GI50: 2.07 µM (inactive)
[17]
  GI50: 8.75 µM (inactive)

## Nc1nc(O)c2ncn(C3C=CC(CO)C3)c2n1 (stereo unspecified)
[1]
  GI50: > 100 µM (inactive)
[2]
  GI50: > 100 µM (inactive)
[3]
  GI50: > 100 µM (inactive)
[4]
  GI50: > 100 µM (inactive)
[5]
  GI50: > 100 µM (inactive)
[6]
  GI50: > 100 µM (inactive)
[7]
  GI50: > 100 µM (inactive)
[8]
  GI50: > 100 µM (inactive)
[9]
  GI50: > 100 µM (inactive)
[10]
  GI50: > 100 µM (inactive)
[11]
  GI50: > 100 µM (inactive)
[12]
  GI50: > 100 µM (inactive)
[13]
  GI50: > 100 µM (inactive)
[18]
  GI50: > 100 µM (inactive)
[14]
  GI50: > 100 µM (inactive)
[19]
  GI50: > 100 µM (inactive)
[16]
  GI50: > 100 µM (inactive)
[17]
  GI50: > 100 µM (inactive)

## CC[C@H]1CN(C)[C@H]2Cc3c([nH]c4ccccc34)C(=O)C[C@H]1C2C(=O)OC (stereo partly specified)
[1]
  GI50: > 100 µM (inactive)
[2]
  GI50: > 100 µM (inactive)
[3]
  GI50: > 100 µM (inactive)
[4]
  GI50: > 100 µM (inactive)
[5]
  GI50: > 100 µM (inactive)
[6]
  GI50: > 100 µM (inactive)
[7]
  GI50: > 100 µM (inactive)
[8]
  GI50: > 100 µM (inactive)
[9]
  GI50: > 100 µM (inactive)
[10]
  GI50: > 100 µM (inactive)
[11]
  GI50: > 100 µM (inactive)
[13]
  GI50: > 100 µM (inactive)
[18]
  GI50: > 100 µM (inactive)
[14]
  GI50: > 100 µM (inactive)
[19]
  GI50: > 100 µM (inactive)
[15]
  GI50: 97.5 µM (inactive)
[16]
  GI50: > 100 µM (inactive)
[17]
  GI50: > 100 µM (inactive)

## Nc1ccc2c(c1)C1Oc3ccccc3CC1CO2 (stereo unspecified)
[1]
  GI50: > 100 µM (inactive)
[2]
  GI50: 74.6 µM (inactive)
[3]
  GI50: > 100 µM (inactive)
[4]
  GI50: > 100 µM (inactive)
[5]
  GI50: > 100 µM (inactive)
[6]
  GI50: > 100 µM (inactive)
[7]
  GI50: > 100 µM (inactive)
[8]
  GI50: > 100 µM (inactive)
[9]
  GI50: > 100 µM (inactive)
[10]
  GI50: > 100 µM (inactive)
[12]
  GI50: > 100 µM (inactive)
[13]
  GI50: > 100 µM (inactive)
[18]
  GI50: > 100 µM (inactive)
[14]
  GI50: > 100 µM (inactive)
[19]
  GI50: > 100 µM (inactive)
[15]
  GI50: > 100 µM (inactive)
[17]
  GI50: > 100 µM (inactive)

## O=c1[nH]nc(-c2ccccc2)n1-c1ccncc1
[1]
  GI50: > 100 µM (inactive)
[2]
  GI50: > 100 µM (inactive)
[3]
  GI50: > 100 µM (inactive)
[4]
  GI50: > 100 µM (inactive)
[5]
  GI50: > 100 µM (inactive)
[6]
  GI50: > 100 µM (inactive)
[7]
  GI50: > 100 µM (inactive)
[8]
  GI50: > 100 µM (inactive)
[9]
  GI50: > 100 µM (inactive)
[10]
  GI50: > 100 µM (inactive)
[11]
  GI50: > 100 µM (inactive)
[12]
  GI50: > 100 µM (inactive)
[13]
  GI50: > 100 µM (inactive)
[18]
  GI50: > 100 µM (inactive)
[19]
  GI50: > 100 µM (inactive)
[15]
  GI50: > 100 µM (inactive)
[16]
  GI50: > 100 µM (inactive)
[17]
  GI50: > 100 µM (inactive)
